Measurements as given in EP0246888A2, “Dopamine-beta-hydroxylase inhibitors” (SMITHKLINE BECKMAN CORPORATION, priority 1986, dated 1987).

Experiments:
[1] = test system: spontaneously hypertensive rats; experiment: mean arterial blood pressure in spontaneously hypertensive rats; assay type: in vivo
Procedure: Further, spontaneously hypertensive rats were treated with a suspension or solution of 1-benzyl-1,2,4-triazole-5-thiol at a dose of 100 mg/kg orally, and mean arterial blood pressure was monitored for 260 minutes using indwelling cannulae positioned in the tail arteries. When compared to vehicle-treated controls, the compound-treated animals' blood pressure was approximately 5% below that of controls 20 minutes following treatment. The compound-treated animals' blood pressure continued to fall until it reached its nadir of approximately 20% less than controls at 240 minutes after compound treatment. Similarly, 1-(3ʹ-fluorobenzyl)-1,2,4-triazole-5-thiol produced approximate 20% blood pressure reductions one hour after a 50 mg/kg intraperitoneal dose. The blood pressure of the treated animals remained approximately 20% less than controls when blood pressure monitoring was terminated.

[2] = molecular target: T1, DBH (Homo sapiens, UniProt P09172); details: reported by Runti et al., Il Farmaco Ed. Sci. 36, 260 (1980); cited from earlier work
T1 sequence (P09172 1-617): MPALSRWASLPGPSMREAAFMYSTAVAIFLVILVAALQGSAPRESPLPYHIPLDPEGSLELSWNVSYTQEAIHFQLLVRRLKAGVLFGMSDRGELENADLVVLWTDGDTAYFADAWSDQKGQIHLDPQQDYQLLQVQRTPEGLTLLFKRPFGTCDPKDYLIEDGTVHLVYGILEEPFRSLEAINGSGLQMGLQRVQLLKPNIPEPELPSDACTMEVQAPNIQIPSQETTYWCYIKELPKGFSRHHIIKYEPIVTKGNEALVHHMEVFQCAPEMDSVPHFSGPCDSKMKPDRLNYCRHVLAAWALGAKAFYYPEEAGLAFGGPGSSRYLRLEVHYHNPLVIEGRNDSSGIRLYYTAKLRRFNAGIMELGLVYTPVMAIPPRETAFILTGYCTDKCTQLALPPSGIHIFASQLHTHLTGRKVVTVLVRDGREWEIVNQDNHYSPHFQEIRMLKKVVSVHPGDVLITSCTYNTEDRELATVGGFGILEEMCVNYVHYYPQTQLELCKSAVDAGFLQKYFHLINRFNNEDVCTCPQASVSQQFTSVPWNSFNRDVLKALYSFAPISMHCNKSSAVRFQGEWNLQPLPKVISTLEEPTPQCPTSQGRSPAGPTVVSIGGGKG

## Fc1cccc(Cn2ncnc2S)c1 [1-(3ʹ-Fluorobenzyl)-1,2,4-triazole-5-thiol]
[1]; 50 mg/kg intraperitoneal dose, one hour after dose
  blood pressure reductions: approximately 20%
[1]; 50 mg/kg intraperitoneal dose, when blood pressure monitoring was terminated
  blood pressure less than controls: approximately 20%

## Sc1ncnn1Cc1ccccc1 [1-benzyl-1,2,4-triazole-5-thiol, 1-Benzyl-1,2,4-triazole-5-thiol]
[1]; 100 mg/kg orally, 20 minutes following treatment, vs vehicle-treated controls
  blood pressure below that of controls: approximately 5%
[1]; 100 mg/kg orally, 240 minutes after compound treatment, vs vehicle-treated controls
  blood pressure nadir, less than controls: approximately 20%

## phenylpicolinic acid
[2]
  inhibitory activity relative to fusaric acid: twice the inhibitory activity of fusaric acid
